Like-named read-outs stand apart in the source and are kept apart here.
What was measured:
XIAP BIR2-3 = target: T1, XIAP BIR2-3 (Homo sapiens, UniProt P98170, C202A/C213G); test: XIAP-BIR2-3 dimeric SMAC Peptide Homogeneous Time Resolved Fluorescence (HTRF) Assay; type: binding
T1 construct: His-BIR2-3 (125-356, C202A/C213G, XIAP)
Method: B. […] Assays were performed in black, flat-bottom, 384-well plates. […] Compounds were dissolved at 3 mM in dimethylsulfoxide (DMSO) and evaluated at eleven serially diluted concentrations. IC50 and Ki values were derived by non-linear regression analysis.

XIAP BIR3 = target: T2, XIAP BIR3 (Homo sapiens, UniProt P98170); test: XIAP-BIR3/SMAC Homogeneous Time Resolved Fluorescence (HTRF) Assay; type: binding
T2 construct: His-BIR3 (241-356, XIAP)
Method: A. XIAP-BIR3/SMAC Homogeneous Time Resolved Fluorescence (HTRF) Assay Assays were performed in black, flat-bottom, 384-well plates. […] The reaction was incubated at room temperature for 60 minutes, following which 10 μl of mouse anti-6×His-terbium labeled Fab (Medarex, Cis-bio) was added to the reaction (40 μl) for an additional 30 minute incubation. […] Compounds were dissolved at 3 mM in dimethylsulfoxide (DMSO) and evaluated at eleven serially diluted concentrations. IC50 and Ki values were derived by non-linear regression analysis.

[1] = 0.5 nM N-His-BIR2-3 (125-356, C202A/C213G, XIAP), 20 nM fluorescein labeled dimeric SMAC peptide, HTRF signal, read-out: XIAP BIR2-3 IC50
[2] = 1 nM N-His-BIR3 (241-356, XIAP), 5 nM fluorescein labeled SMAC peptide, HTRF signal, read-out: XIAP BIR3 IC50

T2 sequence (P98170 241-356): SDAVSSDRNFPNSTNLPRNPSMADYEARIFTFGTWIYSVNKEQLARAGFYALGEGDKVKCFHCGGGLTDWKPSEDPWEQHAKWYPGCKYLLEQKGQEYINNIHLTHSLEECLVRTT
T1 sequence (P98170 125-356 C202A/C213G): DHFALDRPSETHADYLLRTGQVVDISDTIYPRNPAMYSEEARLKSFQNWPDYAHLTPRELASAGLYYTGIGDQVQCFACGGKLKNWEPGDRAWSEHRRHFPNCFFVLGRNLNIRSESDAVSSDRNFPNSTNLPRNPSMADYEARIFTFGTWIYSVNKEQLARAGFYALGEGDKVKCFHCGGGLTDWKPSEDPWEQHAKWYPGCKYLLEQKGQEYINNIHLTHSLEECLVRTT

Row | IC50 (XIAP BIR2-3; [1]) [nM] | IC50 (XIAP BIR3; [2]) [nM] | Structure (SMILES) | IC50 (XIAP BIR2-3) [nM] | IC50 (XIAP BIR3) [nM]
1 | 2.2 | 8.9 | CN[C@@H](C)C(=O)N[C@H](C(=O)N1CC(c2ccc3c(c2)CN(C(=O)[C@@H](NC(=O)[C@H](C)NC)C(C)(C)C)[C@H](C(=O)NC2CCCc4ccccc42)C3)C[C@H]1C(=O)NC(Cc1ccccc1)C(=O)NCc1ccc(OC)cc1)C(C)(C)C (stereo in doubt) [Example 70, (S)-2-((S)-3,3-Dimethyl-2-((S)-2-(methylamino)propanamido)butanoyl)-7-((3S,5S)-1-((S)-3,3-dimethyl-2-((S)-2-(methylamino)propanamido)butanoyl)-5-(((S)-1-((4-methoxybenzyl)amino)-1-oxo-3-phenylpropan-2-yl)carbamoyl)pyrrolidin-3-yl)-N-((R)-1,2,3,4-tetrahydronaphthalen-1-yl)-1,2,3,4-tetrahydroisoquinoline-3-carboxamide] | – | –
2 | 1.5 | 5.6 | CN[C@@H](C)C(=O)N[C@H](C(=O)N1CC(c2ccc3c(c2)CN(C(=O)[C@@H](NC(=O)[C@H](C)NC)C(C)(C)C)[C@H](C(=O)NC2CCCc4ccccc42)C3)C[C@H]1C(=O)NC(Cc1ccccc1)C(=O)Nc1ccc(F)cc1)C(C)(C)C (stereo in doubt) [Example 71, (S)-2-((S)-3,3-Dimethyl-2-((S)-2-(methylamino)propanamido)butanoyl)-7-((3S,5S)-1-((S)-3,3-dimethyl-2-((S)-2-(methylamino)propanamido)butanoyl)-5-(((S)-1-((4-fluorophenyl)amino)-1-oxo-3-phenylpropan-2-yl)carbamoyl)pyrrolidin-3-yl)-N-((R)-1,2,3,4-tetrahydronaphthalen-1-yl)-1,2,3,4-tetrahydroisoquinoline-3-carboxamide] | – | –

The next lines start with the compound.

Row | Structure (SMILES) | IC50 (XIAP BIR2-3; [1]) [nM] | IC50 (XIAP BIR3; [2]) [nM] | IC50 (XIAP BIR2-3) [nM] | IC50 (XIAP BIR3) [nM]
3 | CN[C@@H](C)C(=O)N[C@H](C(=O)N1CC(c2ccc3c(c2)CN(C(=O)[C@@H](NC(=O)[C@H](C)NC)C(C)(C)C)[C@H](C(=O)NC2CCCc4ccccc42)C3)C[C@H]1C(=O)NC(Cc1ccccc1)C(=O)N(C)Cc1ccccc1)C(C)(C)C (stereo in doubt) [Example 72, (S)-7-((3S,5S)-5-(((S)-1-(Benzyl(methyl)amino)-1-oxo-3-phenylpropan-2-yl)carbamoyl)-1-((S)-3,3-dimethyl-2-((S)-2-(methylamino)propanamido)butanoyl)pyrrolidin-3-yl)-2-((S)-3,3-dimethyl-2-((S)-2-(methylamino)propanamido)butanoyl)-N-((R)-1,2,3,4-tetrahydronaphthalen-1-yl)-1,2,3,4-tetrahydroisoquinoline-3-carboxamide] | 3.3 | 16.5 | – | –
4 | CN[C@@H](C)C(=O)N[C@H](C(=O)N1Cc2cc(C3C[C@@H](C(=O)N[C@H](CO)Cc4ccccc4)N(C(=O)[C@@H](NC(=O)[C@H](C)NC)C(C)(C)C)C3)ccc2C[C@H]1C(=O)NC1CCCc2ccccc21)C(C)(C)C (stereo in doubt) [Example 74, (S)-2-((S)-3,3-Dimethyl-2-((S)-2-(methylamino)propanamido)butanoyl)-7-((3S,5S)-1-((S)-3,3-dimethyl-2-((S)-2-(methylamino)propanamido)butanoyl)-5-(((S)-1-hydroxy-3-phenylpropan-2-yl)carbamoyl)pyrrolidin-3-yl)-N-((R)-1,2,3,4-tetrahydronaphthalen-1-yl)-1,2,3,4-tetrahydroisoquinoline-3-carboxamide] | 2.6 | 13.6 | – | –
5 | CN[C@@H](C)C(=O)N[C@H](C(=O)N1Cc2cc(C(=O)N[C@H]3C[C@@H](C(=O)N[C@@H]4CCCc5ccccc54)N(C(=O)[C@@H](NC(=O)[C@H](C)NC)C(C)(C)C)C3)ccc2C[C@H]1C(=O)N[C@@H]1CCCc2ccccc21)C(C)(C)C [Example 1, (S)-2-((S)-3,3-Dimethyl-2-((S)-2-(methylamino)propanamido)butanoyl)-N^7-((3S,5S)-1-((S)-3,3-dimethyl-2-((S)-2-(methylamino)propanamido)butanoyl)-5-(((R)-1,2,3,4-tetrahydronaphthalen-1-yl)carbamoyl)pyrrolidin-3-yl)-N^3—((R)-1,2,3,4-tetrahydronaphthalen-1-yl)-1,2,3,4-tetrahydroisoquinoline-3,7-dicarboxamide] | – | – | 3 | 11

Source: patent publication US8889712B2, “IAP antagonists” (Bristol-Myers Squibb Company, priority 2012, dated 2014)
